Reference: PubChem BioAssay AID179 (DTP/NCI, 2004)
Calls of active or inactive are those of the source.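 The calls were made as follows: active = compounds giving half or more protection of infected cells from virus-caused growth loss, again on retest; inactive = the rest.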 Where a SMILES comes first, the peptide text is derived from it. [ ]: non-standard residue; d: D form. The star is where a group is joined. Phe(4-NO2) = N[CH](Cc1ccc([N+](=O)[O-])cc1)C(=O)O; Boc = CC(C)(C)OC(=O)*; OBn = c1ccc(CO*)cc1

Test system: CEM cells HIV-1 protection, formazan growth assay
Experiment: NCI AIDS Antiviral Assay
Conditions: for IC50: measured here: growth of uninfected CEM cells
How it was run: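 Protection of CEM cells against HIV-1 measured as cell growth via soluble formazan read-out, with five concentrations tested on both infected and uninfected cells; failure to protect may reflect toxicity.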

COC(=O)[C@@H]1C(CO)[C@H](n2cc(C)c(=O)[nH]c2=O)C1(C)C (some centres undefined)
EC50: > 437 µM | IC50: > 437 µM

CNC(=O)N(Cc1ccccc1)C[C@@H]1CCCN1C(C)=O
EC50: > 200 µM | IC50: > 200 µM

CC(=O)c1ccc(NC(=O)C(=O)C(C(=O)c2ccc(Cl)c(Cl)c2)C2OC(=O)c3ccccc32)cc1 (centres undefined)
EC50: > 87.1 µM | IC50: 12.6 µM

CC(=O)N/N=C1\NN(C(C)=O)C2(S1)C(=O)Nc1ccccc12 (centres undefined)
EC50: > 200 µM | IC50: > 200 µM

Cn1cnc(N)c1S(N)(=O)=O
EC50: > 1410 µM | IC50: > 1410 µM

Nc1ccc(S(=O)(=O)Nc2nccs2)cc1
EC50: > 200 µM | IC50: > 200 µM

O=c1ccnc2c1ccc1[nH]cccc12
EC50: > 1260 µM | IC50: 64.6 µM

CC(=O)/C(=C\c1cccc([N+](=O)[O-])c1)C(=O)Nc1ccccc1C
EC50: > 22.4 µM | IC50: > 22.4 µM

COc1ccc(NC(=O)/C(=C/N2C(=O)/C(=C\C(C)=C\c3ccccc3)SC2=S)C(C)=O)cc1
EC50: > 200 µM | IC50: 13.5 µM

C[C@@H](c1ccccc1)n1c(N)c(C#N)c2ccc([N+](=O)[O-])cc2c1=O
EC50: > 200 µM | IC50: 12.3 µM

C/C(=N\NC(N)=S)C(CN1CCCCC1)C(C1=C(O)c2ccccc2OC1)c1ccccc1 (centres undefined)
EC50: > 224 µM | IC50: 123 µM

CN(C)C(=O)OC(Cn1cncn1)(Cn1cncn1)c1ccc(Cl)cc1Cl
EC50: > 200 µM | IC50: > 200 µM

CC(=O)NC(=O)c1ccccc1O
EC50: > 724 µM | IC50: 389 µM

COC1OC2=CCC3C(=O)NC(=O)C3C2[C@H](OCc2ccccc2)C1OCc1ccccc1 (some centres undefined)
outcome: inactive

O=C(O)C1C2c3ccccc3C(c3ccccc32)C1C(=O)O (centres undefined)
EC50: > 851 µM | IC50: > 851 µM

S=c1[nH][nH]c(=S)c2c1[nH]c(=S)n2Cc1ccccc1
EC50: 41.7 µM | IC50: 43.7 µM

O=C(OCC(O)CO)c1c(Cl)c(Cl)c(Cl)c(Cl)c1-c1c2cc(I)c(=O)c(I)c-2oc2c(I)c(O)c(I)cc12 (centres undefined)
EC50: > 200 µM | IC50: 2.63 µM

C/C(=C\c1csc(C)n1)[C@@H]1C[C@@H]2O[C@]2(C)CCC[C@H](C)[C@H](O)[C@@H](C)C(=O)C(C)(C)[C@@H](O)CC(=O)O1 (tested in a mixture with another compound)
EC50: > 0.02 µM | IC50: 0.001 µM

CN1CCCOC(c2ccc(Cl)cc2)O1 (centres undefined)
EC50: > 200 µM | IC50: > 200 µM

O=C(CC1(O)C(=O)Nc2ccc(Br)cc21)c1ccc(Cl)cc1 (centres undefined)
EC50: > 93.3 µM | IC50: > 93.3 µM

COc1cc(C=C2C(=O)OC(C)(C)OC2=O)cc(OC)c1OC
EC50: > 776 µM | IC50: 83.2 µM

C=C(CCCCOCOCCOC)c1ccccc1
outcome: inactive

O=C(N/N=C/c1ccc(Cl)cc1Cl)c1ccccc1SSc1ccccc1C(=O)N/N=C/c1ccc(Cl)cc1Cl
EC50: 38.9 µM | IC50: 178 µM

C[N+](C)([O-])Cc1cccc(NC(=O)c2ccc(C(=O)Nc3cccc(C[N+](C)(C)[O-])c3)cc2)c1
EC50: > 200 µM | IC50: > 200 µM

COC(=O)c1ccc(OCc2ccc3oc(=O)c(-c4ccccc4)nc3c2)cc1
EC50: > 1.41 µM | IC50: > 1.41 µM

Clc1cccc(-n2cccc2)c1
EC50: > 200 µM | IC50: > 200 µM

C1=Cc2nc1c(-c1ccccc1)c1ccc([n-]1)c(-c1ccccc1)c1nc(c(-c3ccccc3)c3ccc([n-]3)c2-c2ccccc2)C=C1.[Zn+2]
EC50: > 27.5 µM | IC50: > 27.5 µM

CCOC(=O)c1ccc(C)c(N=NN(C)C)c1
outcome: inactive

CCOC(=O)/C(=C\c1cccc(OC)c1)C(C)=O
EC50: > 525 µM | IC50: 95.5 µM

C=CCOCn1cc(F)c(=O)[nH]c1=O
EC50: > 200 µM | IC50: > 200 µM

CCCCNC(=O)OCC(COc1ccccc1OC)OC(=O)NCCCC (centres undefined)
EC50: > 66.1 µM | IC50: > 66.1 µM

Cc1cc(NS(=O)(=O)c2ccc(NC(NC(=O)C(C(F)(F)F)C(F)(F)F)(C(F)(F)F)C(F)(F)F)cc2)no1
EC50: > 200 µM | IC50: > 200 µM

CCOC(=O)/C(=C\c1cccc(C(F)(F)F)c1)P(=O)(OCC)OCC
EC50: > 95.5 µM | IC50: 5.01 µM

Nc1ccc2oc3cccc(N)c3c(=O)c2c1
EC50: > 22.9 µM | IC50: > 22.9 µM

O=C(Nc1ccn(C2CCC(CO)O2)c(=O)n1)c1ccccc1 (centres undefined)
EC50: 0.741 µM | IC50: > 200 µM

CC(=O)CCn1ncc(Cl)c(Cl)c1=O
EC50: > 550 µM | IC50: 6.92 µM

COc1cc(C)c(C(=O)Oc2cc(C)c(C(=O)O)c(O)c2C)c(OC)c1C
EC50: > 200 µM | IC50: 70.8 µM

CC1=CC(C)(C)N=C2SC(c3ccc(Cl)cc3)=NN12
EC50: > 24.5 µM | IC50: 20 µM

COC(=O)C1CC(=O)CCC1c1ccccc1 (centres undefined)
EC50: > 347 µM | IC50: > 347 µM

COc1ccc2[nH]c3c(c2c1)CC(=O)N1CCC[C@H](C1)CC31OCCCO1
EC50: > 200 µM | IC50: 112 µM

N#CC1=C(N)N(c2ccccc2)C(c2ccco2)C1(C#N)C#N (centres undefined)
EC50: > 200 µM | IC50: 10 µM

NC(=O)/C=C/c1c[nH]c2nccnc12
EC50: > 191 µM | IC50: 0.977 µM

CC(C)CCC1(O)O[C@H]2C[C@H]3[C@@H]4CCC5=CC(=O)C=C[C@]5(C)[C@H]4CC[C@]3(C)[C@H]2[C@@H]1C (some centres undefined)
outcome: inactive

COc1ccccc1NCC(=O)Nn1c(C)nc2ccc(S(=O)(=O)Nc3ccccc3OC)cc2c1=O
EC50: > 200 µM | IC50: 148 µM

COc1cc2c(c(OC)c1OC)-c1ccc(SC)c(=S)cc1[C@@H](NC(C)=O)CC2
outcome: inactive

C=CCC1(C)CCCCC1(O)CS(=O)c1ccccc1 (centres undefined)
outcome: inactive

Cc1cccc(C2=NC(C)(C)C(C)(C)N=C2c2cccc(C)n2)n1
EC50: > 81.3 µM | IC50: > 81.3 µM

Cc1cc2c(cc1C(=O)CCC(=O)O)CC1(C2)Cc2cc(C)c(C(=O)CCC(=O)O)cc2C1
EC50: > 200 µM | IC50: > 200 µM

c1ccc2nn(C3CCCO3)nc2c1 (centres undefined)
EC50: > 200 µM | IC50: > 200 µM

NC(=O)c1nc(C2OC(CO)C(O)C2O)cs1 (centres undefined)
EC50: > 200 µM | IC50: > 200 µM

COC(=O)CCC(NC(=O)OC(C)(C)C)C(=O)NC(Cc1ccc([N+](=O)[O-])cc1)C(=O)NCC(=O)OCc1ccccc1 (centres undefined) (Boc-Glu(OMe)-[Phe(4-NO2)]-Gly-OBn; configuration not given here)
EC50: > 200 µM | IC50: > 200 µM

COc1ccc(C2C(Cl)C(=O)N2NC(=O)c2ccccc2O)cc1OC (centres undefined)
EC50: > 50.1 µM | IC50: 41.7 µM

CCCCNc1ccc(/C=C2\C=Cc3ccccc32)cc1
EC50: > 10 µM | IC50: > 10 µM

Cc1nc2sccn2c1C(=O)NNC(N)=S
EC50: > 372 µM | IC50: > 372 µM

CCN(CC)CCC(=O)c1ccc(Oc2ccc(Cl)cc2)cc1
EC50: > 200 µM | IC50: 30.2 µM

Cc1nc(N)nc(N)c1CCCCc1ccccc1
outcome: inactive

FC1(F)SC2C3CCC(C3)C2C1(F)F (centres undefined)
outcome: inactive

CC(C)(Br)C(=O)N1CCN(C(c2ccccc2)c2ccccc2)CC1
EC50: > 25.1 µM

CCOC(=O)[C@@H]1ON2O[C@@H](OC3CCCCC3c3ccccc3)C[C@H]3OC(=O)[C@@H]1C32 (some centres undefined)
EC50: > 200 µM | IC50: > 200 µM

CCCCOC(=O)N[C@H]1CCc2cc(OC)c(OC)c(OC)c2-c2ccc(SC)c(=O)cc21
EC50: > 0.2 µM | IC50: 0.00407 µM

COc1ccc2c(c1OC)OCC(CN(C)C)C2=O (centres undefined)
outcome: inactive

Cc1cc(=O)oc2c1c(C)nn2-c1cccc(Cl)c1
EC50: > 95.5 µM | IC50: 89.1 µM

OC(c1ccccc1)(c1ccccc1)C1CC1c1ccncc1 (centres undefined)
EC50: > 200 µM | IC50: 117 µM

Cc1cc2c(c(C(=O)O)c1C)-c1cccc(Cl)c1C2=O
outcome: inactive

COc1cccc(/C=C/C(=O)c2ccccc2)c1O
EC50: 14.5 µM | IC50: 112 µM

COC(=O)C(Cn1cnc2c(Cl)nc(N)nc21)P(=O)(OC)OC (centres undefined)
EC50: > 692 µM | IC50: 37.2 µM

Cc1cc2n(C)cc(-c3ccnn3C)c(=O)n2n1
EC50: > 151 µM | IC50: > 151 µM

O=C(Nc1cccnc1)c1ccccc1[Se][Se]c1ccccc1C(=O)Nc1cccnc1
EC50: 3.24 µM | IC50: 6.92 µM

CCOC(CN(C)C(=O)Nc1cccc2ccccc12)OCC
EC50: > 200 µM | IC50: 178 µM

CCOC(=O)c1nnsc1NN
EC50: > 200 µM | IC50: 166 µM

c1ccc(C2N=NN(c3ccccc3)C2N2CCCCC2)cc1 (centres undefined)
outcome: inactive

CC(=O)C(=Cc1ccc(C=C(C(C)=O)C(C)=O)cc1)C(C)=O
EC50: > 200 µM | IC50: 0.933 µM

O=NNc1nc(-c2cccnc2)nc2ccccc12
EC50: > 200 µM | IC50: > 200 µM

NC(=O)c1c(-c2ccccc2)c(-c2ccccc2)cc2c(=O)c3ccccc3[nH]c12
outcome: inactive

C=CCn1c(=O)c(-c2ccccc2)c(O)c2ccccc21
EC50: > 200 µM | IC50: > 200 µM

COC(=O)C1(NC(=O)C(Cc2ccccc2)N(C(=O)OC(C)(C)C)C(=O)OC(C)(C)C)CCCC1 (centres undefined)
EC50: > 200 µM | IC50: 110 µM

CCOC(=O)c1[nH]c(Br)c(-c2ccc(Br)cc2)c1Br
EC50: > 2 µM | IC50: 0.912 µM

CCC1C2C=CC(CC2)N1S(=O)(=O)c1ccc(C)cc1 (centres undefined)
EC50: > 64.6 µM | IC50: 36.3 µM

CCSc1cc(=O)n(C)c(=O)n1C
outcome: inactive

Nc1ccc2c(c1)C1Oc3ccccc3CC1CO2 (centres undefined)
EC50: > 200 µM | IC50: 110 µM

CN1c2ccccc2N(C)C2C1N(C)c1ccccc1N2C (centres undefined)
EC50: > 64.6 µM | IC50: 11 µM

CCN1CCN=c2c3cc(OC)ccc3n3cnc4ccc1c2c43
EC50: > 20 µM | IC50: 0.0955 µM

O=[N+]([O-])c1cccc2nccc(NCCCO)c12
EC50: > 200 µM | IC50: 6.92 µM

COC(=O)C1CC=CCCC1=O (centres undefined)
EC50: > 776 µM | IC50: 275 µM

N#Cc1c2c(c(Cl)n3c1nc1ccccc13)CCCC2
EC50: > 3.72 µM | IC50: > 3.72 µM

S=C1NC2=C(COC/C2=C\c2cccc(Cl)c2)C(c2cccc(Cl)c2)N1 (centres undefined)
outcome: inactive

C=CCC12CC(C)OC1=Nc1ccccc1NC2=O (centres undefined)
EC50: > 200 µM | IC50: > 200 µM

Cc1c(C#N)c(N)n(C2OC(CO)C(O)C(O)C2O)c(=S)c1C#N (centres undefined)
EC50: > 200 µM | IC50: > 200 µM

N#CCC(=O)N/N=C1\C(=O)N(c2ccc(Cl)cc2)C(=O)C(=O)C1c1nc2ccccc2o1 (centres undefined)
outcome: inactive

CN(C)/C=C/c1c2c(nc3ccccc13)C(=O)c1ccccc1C2=O
EC50: > 100 µM | IC50: 2.24 µM
